In patent publication US8148493B2, “Method for inhibiting “melanoma inhibitory activity” MIA” (Antisense Pharma GmbH, priority 2002, dated 2012):

What was measured:
MIA = molecular target: T1, MIA (Homo sapiens, UniProt Q16674); assay: Boyden Chamber assay, melanoma cell invasion with and without MIA; type: cell-based
T1 sequence (Q16674 25-131): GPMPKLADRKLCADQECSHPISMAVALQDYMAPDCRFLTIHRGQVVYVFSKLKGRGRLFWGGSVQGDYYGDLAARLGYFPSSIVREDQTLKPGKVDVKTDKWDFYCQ
Text: Both in vitro and in vivo MIA expression levels strictly correlate with an highly invasive phenotype (Bosserhoff et al., 1996, J. Biol. Chem. 271, 490-495; Bosserhoff et al., 1999, J. of Pathology 187, 446-454). Further in vivo studies have shown the necessity of MIA for melanoma invasion and metastasis (Bosserhoff et al., 2001, Melanoma Res. 11, 417-421., Guba, et al., 2000, Br. J. Cancer 83, 1216-1222). We therefore aimed to design MIA-inhibitory peptides based on our experiments which identified fibronectin epitopes interacting with MIA (Stoll et al., 2001; EMBO J. 20: 340-349). Peptides derived from fibronectin which were shown previously to cross-react with MIA were tested in Boyden Chamber assays on their effect on melanoma cell invasion with and without MIA. […] In addition we tested several of the peptide sequences derived from phage display screenings and found peptide SEQ ID NO:16 to be a potential interesting candidate for therapeutic MIA-inhibition. […] We then tested the effect of peptides SEQ ID NO:16 and 22 on growth of metastasis in vivo using the B16/C57B16 model.

B16 melanoma cells = assay: In vivo experimental metastasis assay, B16/C57Bl6 model; settings: C57Bl6 mice, B16 cells i.v., peptide 550 μg/mouse every day, 18 days; for size of the lung tumor nodules: control 119.9±9.95; for number of black lung nodules of melanoma: control 193±13
Experimental: To measure the effect of SEQ ID NO: 16 and SEQ ID NO:22 on the metastatic potential of B16 melanoma cells in vivo an experimental metastasis assay was used (Bosserhoff et al., 2001, Melanoma Res. 11, 417-421). Intravenous injections of monodispersed tumor cells (1×10^5 cells per animal) were performed into syngeneic C57BI6 mice (n=12 for every peptide as well as control). Peptides (550 μg/mouse) or PBS was injected every day. After 18 days the mice were sacrificed, the lungs removed, washed in PBS, fixed in formalin and the visible tumor nodules on the surface of the lungs were counted and the tumor areas measured.

melanoma cells = assay: Melanoma (tumor) cell attachment; type: cell-based

Row | Sequence | effect on MIA function (melanoma cell invasion) (MIA) | size of the lung tumor nodules (B16 melanoma cells) | number of black lung nodules of melanoma (B16 melanoma cells) | effect on melanoma/tumor cell attachment (melanoma cells)
1 | ETTIVITWTPAPR (from phage display screening) [SEQ ID NO:22, fibronectin-derived peptide] | block MIA function | 87.15±5.32 | 249±26 | 
2 | NSLLVSWQPPRAR (from phage display screening) [SEQ ID NO:24, fibronectin-derived peptide] | block MIA function |  |  | inhibit also tumor cell attachment
3 | RLTLLVLIMPAP (from phage display screening) [SEQ ID NO:16, do-decapeptide from phage display] | strongly inhibited | 78.1±5.03 | 198±19 | no effect
4 | TSLLISWDAPAVT (from phage display screening) [SEQ ID NO:23, fibronectin-derived peptide] | block MIA function |  |  | inhibit also tumor cell attachment
